Patent publication US10155766B2, “Pyrazolopyrimidine antibacterial agents” (priority 2016, dated 2018)

How the values were obtained:
[1] = test system: Burkholderia thailandensis (E 264); experiment: microbe, parasite or virus in culture; format: cell-based; settings: for zone of inhibition at 100 µM / zone of inhibition at 500 µM / zone of inhibition at 1000 µM: Burkholderia thailandensis, read-out: Zone of inhibition (diameter, in millimeter) B. thailandensis; for zone of inhibition at 100 µM: Conc. 0.1 mM; for zone of inhibition at 500 µM: Conc. 0.5 mM; for zone of inhibition at 1000 µM: Conc. 1.0 mM
[2] = test system: Pseudomonas aeruginosa (ATCC 27853); experiment: microbe, parasite or virus in culture; format: cell-based; settings: for zone of inhibition at 100 µM / zone of inhibition at 500 µM / zone of inhibition at 1000 µM: Pseudomonas aeruginosa, ATCC27853, read-out: Zone of inhibition (diameter, in millimeter) P. aeruginosa; for zone of inhibition at 100 µM: Conc. 0.1 mM; for zone of inhibition at 500 µM: Conc. 0.5 mM; for zone of inhibition at 1000 µM: Conc. 1.0 mM
[3] = target: T1, BtIspD (Burkholderia thailandensis, UniProt Q2SWT6); format: binding
T1 construct: 6xHis (AVA0421 vector, 3C-cleavable) (N, cleaved yes); made in house; host or cells: E. coli BL21(DE3)R3 Rosetta Oxford
T1 sequence (Q2SWT6 1-236): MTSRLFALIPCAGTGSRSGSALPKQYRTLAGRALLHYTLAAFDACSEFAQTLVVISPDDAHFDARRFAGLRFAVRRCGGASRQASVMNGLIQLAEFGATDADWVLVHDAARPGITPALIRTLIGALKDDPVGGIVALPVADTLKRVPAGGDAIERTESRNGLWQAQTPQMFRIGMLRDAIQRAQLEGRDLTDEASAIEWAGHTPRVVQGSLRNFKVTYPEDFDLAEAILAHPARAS

[4] = target: T2, Mycobacterium paratuberculosis (Mp) IspD (Mycolicibacterium paratuberculosis, UniProt Q743W5); format: binding
T2 sequence (Q743W5 1-235): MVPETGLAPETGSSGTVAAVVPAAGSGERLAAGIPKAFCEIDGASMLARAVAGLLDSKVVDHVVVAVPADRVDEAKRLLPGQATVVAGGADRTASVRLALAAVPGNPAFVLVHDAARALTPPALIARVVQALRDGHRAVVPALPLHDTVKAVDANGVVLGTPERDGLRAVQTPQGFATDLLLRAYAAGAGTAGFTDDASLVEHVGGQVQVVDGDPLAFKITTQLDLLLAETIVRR

[5] = test system: Mycobacterium abscessus (Ma) IspE; format: binding
[6] = target: BpIspF (Burkholderia pseudomallei, UniProt Q63T71); format: binding, B. pseudomallei
[7] = Solubility observed in work-up; settings: in water and ethyl acetate
[8] = test system: BtIspE; format: binding, Burkholderia thailandensis

Chain of BpIspF (Q63T71 whole entry, looked up): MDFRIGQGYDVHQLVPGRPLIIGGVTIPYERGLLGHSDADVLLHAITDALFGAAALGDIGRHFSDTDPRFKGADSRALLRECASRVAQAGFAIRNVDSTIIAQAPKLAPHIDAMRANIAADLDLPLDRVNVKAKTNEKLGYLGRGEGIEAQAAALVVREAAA

SMILES	growth inhibition of B. thailandensis (in words) [1]	zone of inhibition at 100 µM [1] [mm]	zone of inhibition at 500 µM [1] [mm]	zone of inhibition at 1000 µM [1] [mm]	growth inhibition of P. aeruginosa (in words) [2]	zone of inhibition at 100 µM [2] [mm]	zone of inhibition at 500 µM [2] [mm]	zone of inhibition at 1000 µM [2] [mm]	STD-NMR binding to BtIspD (in words) [3]	fragment binding to MpIspD (in words) [4]	fragment binding to MaIspE (in words) [5]	fragment binding to BpIspF (in words) [6]	melting point [°C]	solubility (in words) [7]	STD-NMR binding to BtIspE (in words) [8]
Cn1ncc2c(NCc3ccc(Cl)cc3)ncnc21 [Compound 17]	did not show measurable growth inhibition	0	0	0	did not show measurable growth inhibition	0	0	0	strongest binders	hit and clear fragment binder	hit and clear fragment binder	very weak binder below the STD-NMR hit threshold	197 to 199		
Cn1ncc2c(NCCO)ncnc21 [Compound 3]		0	0	0		0	15	21					196 to 198	partially soluble	
Cn1ncc2c(NCc3ccc(Cl)c(Cl)c3)ncnc21 [Compound 18]		0	12	18		0	10	20	strongest binders				170 to 173		high % STD values
